Measurements from ChEMBL document CHEMBL3745698, “α-Aryl-N-aryl nitrones: Synthesis and screening of a new scaffold for cellular protection against an oxidative toxic stimulus” (Bioorg Med Chem, 2016).
The source made the active and inactive calls. No cut-off for these calls is given here.

How the values were obtained:
[1] = test system: SH-SY5Y; assay: (§1) Cytoprotective activity against H2O2-induced apoptosis in human SH-SY5Y cells assessed as dead cells at 100 nM preincubated for 24 hrs followed by H2O2 addition measured after 24 hrs by annexin V-FITC/propidium iodide staining-based flow cytometric analysis (reference value: 25.81 +/- 3.57%); format: functional
[2] = test system: SH-SY5Y; assay: as §1, with “late apoptotic” for “dead”, “2.78” for “25.81”, “0.53%)” for “3.57%)”; format: functional
[3] = test system: SH-SY5Y; assay: Cytoprotective activity against H2O2-induced apoptosis in human SH-SY5Y cells assessed as early apoptotic cells at 100 nM preincubated for 24 hrs followed by H2O2 addition measured after 24 hrs by annexin V-FITC/propidium iodide staining-based flow cytometric analysis relative to control; format: functional
[4] = test system: SH-SY5Y; assay: Cytoprotective activity against H2O2-induced toxicity in human SH-SY5Y cells assessed as increase in cell viability at 1 uM preincubated for 24 hrs followed by H2O2 addition measured after 24 hrs by MTT assay relative to control; format: functional
[5] = test system: SH-SY5Y; assay: Cytoprotective activity against H2O2-induced toxicity in human SH-SY5Y cells assessed as increase in cell viability at 1 uM preincubated for 24 hrs followed by H2O2 addition measured after 24 hrs by MTT assay relative to PBN; format: functional
[6] = test system: SH-SY5Y; assay: Cytoprotective activity against H2O2-induced apoptosis in human SH-SY5Y cells assessed as dead cells at 1 uM preincubated for 24 hrs followed by H2O2 addition measured after 24 hrs by annexin V-FITC/propidium iodide staining-based flow cytometric analysis (reference value: 25.81 +/- 3.57%); format: functional
[7] = test system: SH-SY5Y; assay: Cytoprotective activity against H2O2-induced apoptosis in human SH-SY5Y cells assessed as late apoptotic cells at 1 uM preincubated for 24 hrs followed by H2O2 addition measured after 24 hrs by annexin V-FITC/propidium iodide staining-based flow cytometric analysis (reference value: 2.78 +/- 0.53%); format: functional
[8] = test system: SH-SY5Y; assay: Cytoprotective activity against H2O2-induced apoptosis in human SH-SY5Y cells assessed as early apoptotic cells at 1 uM preincubated for 24 hrs followed by H2O2 addition measured after 24 hrs by annexin V-FITC/propidium iodide staining-based flow cytometric analysis relative to control; format: functional
[9] = test system: SH-SY5Y; assay: Cytoprotective activity against H2O2-induced oxidative stress in human SH-SY5Y cells at 1 uM preincubated for 24 hrs followed by H2O2 addition measured after 24 hrs by DCFHDA dye-based flow cytometric analysis; format: functional, cell-based
[10] = test system: SH-SY5Y; assay: Cytoprotective activity against H2O2 stressed human SH-SY5Y cells assessed as increase in glutathione level at 1 uM preincubated for 24 hrs followed by H2O2 addition measured after 24 hrs by spectrophotometric analysis; format: functional
[11] = test system: SH-SY5Y; assay: Cytoprotective activity against H2O2-induced apoptosis in human SH-SY5Y cells assessed as viable cells at 1 uM preincubated for 24 hrs followed by H2O2 addition measured after 24 hrs by annexin V-FITC/propidium iodide staining-based flow cytometric analysis (reference value: 71.08 +/- 2.34%); format: functional; conditions: read-out: Activity
[12] = test system: SH-SY5Y; assay: Toxicity in H2O2 stressed human SH-SY5Y cells assessed as effect on total glutathione level at 1 uM preincubated for 24 hrs followed by H2O2 addition measured after 24 hrs by spectrophotometric analysis; format: cell-based

Work on `CN[C@@H]1C[C@H]2O[C@@](C)([C@@H]1OC)n1c3ccccc3c3c4c(c5c6ccccc6n2c5c31)C(=O)NC4` [STAUROSPORINE] yielded an Activity [1] of 6.19%, an Activity [2] of 14.49% and an Activity [3] of 2.63%.

For `Cc1ccc(/[N+]([O-])=C/c2ccc3c(c2)OCO3)cc1C`, the Activity [4] was 71% and the Activity [5] was 42%.

`[O-]/[N+](=C\c1ccncc1)c1ccc(Cl)cc1` gave an Activity [4] of 71% and an Activity [5] of 42%.

Compound `CC(C)(C)/[N+]([O-])=C\c1ccccc1` has an Activity [6] of 9.42%, an Activity [7] of 2.4% and an Activity [8] of 0.03%. The Activity [9] was “Active” and the Activity [10] was 65%.

In the case of `[O-]/[N+](=C\c1ccccc1)c1ccc(Cl)cc1`, the Activity [4] was 71% and the Activity [5] was 42%.

For `Cc1ccc(/[N+]([O-])=C/c2ccncc2)cc1C`, the Activity [4] was 71% and the Activity [5] was 42%.

`[O-]/[N+](=C\c1ccncc1)c1ccccc1` gave an Activity [4] of 71% and an Activity [5] of 42%.

In the case of `Cc1ccc(/[N+]([O-])=C/c2ccccc2)cc1C`, the Activity [4] was 95%, the Activity [6] was 9.13% and the Activity [7] was 1.21%. For the same compound, the viability at 1 µM [11] was 85%, the Activity [8] was 0% and the Activity [12] was “Non-toxic”. For the same compound, the Activity [9] was “Active”, the Activity [10] was 65% and the Activity [5] was 42%.

Compound `[O-]/[N+](=C\c1ccccc1)c1ccccc1` has an Activity [4] of 71%, an Activity [6] of 3.78% and an Activity [7] of 1.56%. The viability at 1 µM [11] was 85%, the Activity [8] was 0% and the Activity [12] was “Non-toxic”. For the same compound, the Activity [9] was “Active”, the Activity [10] was 65% and the Activity [5] was 42%.

For `[O-]/[N+](=C\c1ccc2c(c1)OCO2)c1ccccc1`, the Activity [4] was 71% and the Activity [5] was 42%.

Work on `[O-]/[N+](=C\c1ccc2c(c1)OCO2)c1ccc(Cl)cc1` yielded an Activity [4] of 71% and an Activity [5] of 42%.
